Patent US11332500B2, “Heterotandem bicyclic peptide complexes” (BicycleTx Limited, priority 2019, dated 2022)
*1 amine or outer side, *2 acyl side, *3 side chain or, on linkers, in order; H or OH if unused. Where a SMILES comes first, the peptide text is derived from it. Bridges are numbered along the chain shown (N, C = ends). Roman numbers before positions name the chains, in order. [ ]: non-standard residue; d: D form. TATA = O=C(CC[*:1])N1CN(C(=O)CC[*:2])CN(C(=O)CC[*:3])C1; X2 = O=C(CCOCCOCCOCCOCCOCCn1cc(CCC(=O)[*:2])nn1)[*:1]; hArg = N=C(N)NCCCC[C@H](N)C(=O)O; tBuAla = CC(C)(C)C[C@H](N)C(=O)O; Nle = CCCC[C@H](N)C(=O)O

Target: T1, CD137 (Homo sapiens, UniProt Q07011)
T1 construct: host or cells: Jurkat reporter cells from the Promega kit, co-cultured with tumour cells (NCI-H292, PC3 or RKO)
Experiment: CD137 reporter assay co-culture with RKO tumour cells (PD-L1/CD137 heterotandems)
Assay type: cell-based
Settings: Jurkat CD137 reporter cells co-cultured with RKO (PD-L1), 6 h; read-out: Fold Induction over background
Procedure: Culture medium, referred to as R1 media, is prepared by adding 1% FBS to RPMI-1640 (component of Promega kit CS196005). Serial dilutions of test articles in R1 are prepared in a sterile 96 well-plate. Add 25 μL per well of test articles or R1 (as a background control) to designated wells in a white cell culture plate. Tumour cells* are harvested and resuspended at a concentration of 400,000 cells/mL in R1 media. Twenty five (25) μL/well of tumour cells are added to the white cell culture plate. Jurkat cells (Promega kit CS196005, 0.5 mL) are thawed in the water bath and then added to 5 ml pre-warmed R1 media. Twenty five (25) μL/well of Jurkat cells are then added to the white cell culture plate. Incubate the cells and test articles for 6 h at 37° C., 5% CO2. At the end of 6 h, add 75 μL/well Bio-Glo™ reagent (Promega) and incubate for 10 min before reading luminescence in a plate reader (Clariostar, BMG). The fold change relative to cells alone (Jurkat cells+Cell line used in co-culture) is calculated and plotted in GraphPad Prism as log(agonist) vs response to determine EC50 (nM) and Fold Induction over background (Max).
The tumour cell type used in co-culture for EphA2 is PC3. The tumour cell type used in co-culture for PD-L1 is RKO.
A summary of the fold induction induced by PD-L1/CD137 heterotandem peptides in the CD137 reporter coculture assay with RKO cells is shown in Table 3.

T1 sequence (Q07011 24-255): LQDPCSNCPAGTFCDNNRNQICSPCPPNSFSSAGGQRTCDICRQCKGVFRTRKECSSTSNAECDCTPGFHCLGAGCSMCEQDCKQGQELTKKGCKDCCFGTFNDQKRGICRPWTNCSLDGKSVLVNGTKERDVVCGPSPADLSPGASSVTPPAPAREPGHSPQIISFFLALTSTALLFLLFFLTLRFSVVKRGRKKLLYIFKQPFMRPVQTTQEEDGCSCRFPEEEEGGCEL

`CCCC[C@@H]1NC(=O)[C@H](Cc2ccc(O)cc2)NC(=O)[C@@H]2CCCN2C(=O)[C@H](CC(=O)O)NC(=O)[C@H](C)NC(=O)[C@H](Cc2ccccc2)NC(=O)[C@@H]2CSCCC(=O)N3CN(CN(C3)C(=O)CCSC[C@@H](C(=O)N[C@@H](C)C(N)=O)NC1=O)C(=O)CCSC[C@H](NC(C)=O)C(=O)N[C@@H](CC(C)(C)C)C(=O)N1CCC[C@H]1C(=O)N[C@@H](CCC(=O)O)C(=O)N[C@H](CCCCNC(=O)CCc1cn(CCOCCOCCOCCOCCOCCC(=O)NCCCC[C@@H]3NC(=O)[C@H](CC(C)C)NC(=O)[C@H](CCCCNC(C)=O)NC(=O)[C@H](CCC(N)=O)NC(=O)[C@@H]4CSCCC(=O)N5CN(CN(C5)C(=O)CCSC[C@@H](C(=O)N5CCC[C@H]5C(=O)N[C@@H](CO)C(=O)N[C@@H](Cc5c[nH]cn5)C(N)=O)NC(=O)[C@H](CC(C)C)NC3=O)C(=O)CCSC[C@H](NC(=O)[C@H](CCCCNC(=N)N)NC(=O)[C@H](CC(=O)O)NC(C)=O)C(=O)N[C@@H](CO)C(=O)N[C@@H](C)C(=O)NCC(=O)N[C@@H](Cc3c[nH]c5ccccc35)C(=O)N[C@@H](CC(C)C)C(=O)N[C@@H]([C@@H](C)O)C(=O)N[C@@H](CCSC)C(=O)N4)nn1)C(=O)N1CCC[C@H]1C(=O)N[C@@H](Cc1ccc(O)cc1)C(=O)N2` [BCY12242] (I: Ac-D[hArg]CSAGWLTMCQK(Ac)LKLCPSH-NH2 / II: Ac-C[tBuAla]PE[dK]PYCFADPY[Nle]CA-NH2; linker I:3-I:11-I:17, II:1-II:8-II:15 via TATA; linker I:15-II:5 via X2) gave a fold induction of 13.
